According to the supplement of paper PMC13380429:

Experiments:
Conditions in all cases: 72 h
Vero E6 [1] = assay: drug sensitivity score (DSS) for viability; higher = more toxic; extreme values may be limits of the assay
U2OS [2] = assay: as above
HepG2 [3] = assay: as above
Caco-2 [4] = assay: as above
Calu-3 [5] = assay: as above
Vero E6 [6] = assay: cell viability relative to DMSO; higher = less toxic
U2OS [7] = assay: as above
HepG2 [8] = assay: as above
Caco-2 [9] = assay: as above
Calu-3 [10] = assay: as above
Vero E6 [11] = assay: relative viability EC50 (midpoint between 100% and the lowest measured viability); higher = less toxic
U2OS [12] = assay: as above
HepG2 [13] = assay: as above
Caco-2 [14] = assay: as above
Calu-3 [15] = assay: as above

Row | Structure (SMILES) | drug sensitivity score (Vero E6 [1]) | drug sensitivity score (U2OS [2]) | drug sensitivity score (HepG2 [3]) | drug sensitivity score (Caco-2 [4]) | drug sensitivity score (Calu-3 [5]) | cell viability (Vero E6 [6]; 1 nM) [%] | cell viability (Vero E6 [6]; 10 nM) [%] | cell viability (Vero E6 [6]; 100 nM) [%] | cell viability (Vero E6 [6]; 1000 nM) [%] | cell viability (Vero E6 [6]; 10000 nM) [%] | cell viability (U2OS [7]; 1 nM) [%] | cell viability (U2OS [7]; 10 nM) [%] | cell viability (U2OS [7]; 100 nM) [%] | cell viability (U2OS [7]; 1000 nM) [%] | cell viability (U2OS [7]; 10000 nM) [%] | cell viability (HepG2 [8]; 1 nM) [%] | cell viability (HepG2 [8]; 10 nM) [%] | cell viability (HepG2 [8]; 100 nM) [%] | cell viability (HepG2 [8]; 1000 nM) [%] | cell viability (HepG2 [8]; 10000 nM) [%] | cell viability (Caco-2 [9]; 1 nM) [%] | cell viability (Caco-2 [9]; 10 nM) [%] | cell viability (Caco-2 [9]; 100 nM) [%] | cell viability (Caco-2 [9]; 1000 nM) [%] | cell viability (Caco-2 [9]; 10000 nM) [%] | cell viability (Calu-3 [10]; 1 nM) [%] | cell viability (Calu-3 [10]; 10 nM) [%] | cell viability (Calu-3 [10]; 100 nM) [%] | cell viability (Calu-3 [10]; 1000 nM) [%] | cell viability (Calu-3 [10]; 10000 nM) [%] | relative viability EC50 (Vero E6 [11]) [µM] | relative viability EC50 (U2OS [12]) [µM] | relative viability EC50 (HepG2 [13]) [µM] | relative viability EC50 (Caco-2 [14]) [µM] | relative viability EC50 (Calu-3 [15]) [µM]
1 | CCOc1cc(C=O)ccc1O [ethyl-vanillin] | 0 | 0 | 0 | 0 | 0 | 106 | 92.8 | 107 | 95.1 | 91.6 | 97.4 | 102 | 96.2 | 101 | 99.9 | 117 | 99.5 | 96.2 | 103 | 97.1 | 99.3 | 92.5 | 98.5 | 78.4 | 101 | 98.6 | 108 | 102 | 97.5 | 99.3 | > 10 | > 10 | > 10 | > 10 | > 10
2 | CCc1cc2c(s1)-n1c(C)nnc1CN=C2c1ccccc1Cl [etizolam] | 0 | 0 | 0 | 0 | 0 | 104 | 106 | 105 | 99.8 | 99.6 | 98.6 | 102 | 98.8 | 97.3 | 96.5 | 104 | 106 | 106 | 93.1 | 108 | 102 | 103 | 96.4 | 94.3 | 99.2 | 101 | 93.2 | 105 | 96.4 | 105 | > 10 | > 10 | > 10 | > 10 | > 10
3 | C=C1/C(=C\C=C2/CCC[C@]3(C)[C@@H]([C@H](C)CCCC(O)(C(F)(F)F)C(F)(F)F)CC[C@@H]23)C[C@@H](O)C[C@@H]1O [falecalcitriol] | 0 | 0 | 0 | 0 | 0 | 92.4 | 96.2 | 85.8 | 94.9 | 104 | 100 | 94.9 | 98.5 | 92.7 | 93.1 | 98.1 | 97 | 94.1 | 102 | 92.9 | 96.2 | 96.1 | 90.6 | 95.6 | 92.6 | 122 | 99.3 | 95.7 | 99.7 | 98.2 | > 10 | > 10 | > 10 | > 10 | > 10
4 | CSc1ccc(OCc2ncc([N+](=O)[O-])n2C)cc1 [fexinidazole] | 0 | 0 | 0 | 0 | 0 | 103 | 101 | 99.7 | 101 | 97 | 98.3 | 103 | 99.7 | 97.1 | 98.5 | 92.7 | 85.9 | 104 | 105 | 88.4 | 106 | 104 | 105 | 96.7 | 96.9 | 100 | 98.5 | 78.6 | 101 | 97.9 | > 10 | > 10 | > 10 | > 10 | > 10
5 | COc1ccc(Cl)cc1[C@]1(F)C(=O)Nc2cc(C(F)(F)F)ccc21 [flindokalner] | 0 | 0 | 0 | 0 | 0 | 97.7 | 96.1 | 98.8 | 95.6 | 101 | 96.9 | 102 | 97.3 | 97.8 | 95.2 | 103 | 96.3 | 103 | 100 | 95.2 | 95.2 | 102 | 97.6 | 101 | 88.7 | 103 | 91.3 | 96.3 | 96.9 | 93.9 | > 10 | > 10 | > 10 | > 10 | > 10
6 | C#C[C@]1(O)CC[C@H]2[C@@H]3CCC4=CC(=O)CCC4=C3C=C[C@@]21CC [gestrinone] | 0 | 0 | 0 | 0 | 0 | 96.6 | 97.2 | 101 | 89.3 | 101 | 94.7 | 95.8 | 91.6 | 99.9 | 93.9 | 96.7 | 103 | 101 | 103 | 90.6 | 107 | 116 | 86.1 | 102 | 101 | 106 | 93.3 | 99.9 | 97.8 | 94.1 | > 10 | > 10 | > 10 | > 10 | > 10
7 | N[C@H](C(=O)O)c1cc(O)no1 [ibotenic-acid] | 0 | 0 | 0 | 0 | 0 | 102 | 101 | 99.1 | 99.4 | 100 | 97.8 | 97.5 | 96.6 | 102 | 92.4 | 91.3 | 104 | 95.1 | 93.3 | 93.9 | 92.9 | 94.2 | 93.6 | 97.2 | 96.5 | 93 | 93.7 | 105 | 93.6 | 94 | > 10 | > 10 | > 10 | > 10 | > 10
8 | CC[C@H](Nc1ncnc2[nH]cnc12)c1nc2cccc(F)c2c(=O)n1-c1ccccc1 [idelalisib] | 0.2 | 0 | 0.1 | 0.3 | 0 | 99 | 95 | 96 | 87.5 | 89.5 | 91.2 | 101 | 94.1 | 95.6 | 93.9 | 104 | 94 | 108 | 97.3 | 88.5 | 95.4 | 98.1 | 96.6 | 101 | 83.7 | 106 | 104 | 85.8 | 103 | 89.5 | > 10 | > 10 | > 10 | > 10 | > 10
9 | CC1Cc2ccccc2N1NC(=O)c1ccc(Cl)c(S(N)(=O)=O)c1 (stereo not given) [indapamide] | 0 | 0 | 0 | 0 | 0 | 100 | 100 | 103 | 97.4 | 92.9 | 101 | 96.9 | 97.9 | 96.7 | 98.3 | 95.5 | 95.7 | 94.2 | 99.5 | 97.1 | 94.8 | 96 | 94.3 | 94.8 | 93.3 | 105 | 110 | 105 | 96.7 | 96 | > 10 | > 10 | > 10 | > 10 | > 10
10 | O=[N+]([O-])O[C@H]1CO[C@H]2[C@@H]1OC[C@H]2O[N+](=O)[O-] [isosorbide-dinitrate] | 0 | 0 | 0 | 0 | 0 | 94.2 | 102 | 92.5 | 97.1 | 108 | 100 | 96.1 | 100 | 99.8 | 99 | 90.6 | 117 | 102 | 113 | 101 | 99.1 | 95 | 102 | 90.5 | 98.7 | 99.4 | 101 | 101 | 101 | 107 | > 10 | > 10 | > 10 | > 10 | > 10
11 | COc1ccc(C(=O)NCc2ccc(OCCN(C)C)cc2)cc1OC [itopride] | 0 | 0 | 0 | 0 | 0 | 99.9 | 102 | 99.8 | 101 | 96.7 | 102 | 101 | 99.1 | 103 | 95.1 | 97.4 | 96.2 | 87.2 | 90.3 | 107 | 99 | 96.5 | 108 | 100 | 89.5 | 102 | 103 | 97.1 | 103 | 91.2 | > 10 | > 10 | > 10 | > 10 | > 10
12 | O=C(C[S+]([O-])Cc1ccco1)NC/C=C\COc1cc(CN2CCCCC2)ccn1 (stereo not given) [lafutidine] | 0 | 0 | 0 | 0 | 0 | 101 | 100 | 100 | 93.5 | 96.1 | 99.3 | 100 | 96.9 | 102 | 94.8 | 98.3 | 95.4 | 97.9 | 105 | 104 | 91.5 | 91.3 | 97.6 | 97 | 90.6 | 91.4 | 106 | 95.6 | 93.2 | 92.3 | > 10 | > 10 | > 10 | > 10 | > 10
